Target: T1, α4β1 integrin (Jurkat cell adhesion to immobilized CS-1 derived peptide CLHPGEILDVPST) (Homo sapiens, UniProt P05556+P13612)
T1 construct: 100 μl of Jurkat cells (2.5×10^6 cells/ml) in DMEM plus BSA; host or cells: Jurkat T-cell line
Assay: Jurkat-CS-1 assay
Format: cell-based
Details: Jurkat cells on CS-1 peptide coated plates; read-out: JK/CS-1 (Jurkat CS-1 Assay IC50 value range)
Procedure: The CS-1 derived peptide, CLHPGEILDVPST, and the scrambled control peptide, CLHGPIELVSDPT, were synthesized on a Beckman 990 synthesizer using t-Boc methodology. The peptides were immobilized onto microtiter plates using the heterobifunctional crosslinker 3-(2-pyridyldithio)propionic acid N-hydroxysuccinimide ester (SPDP) as reported by Pierschbacher et al., Proc. Natl. Acad. USA, 80:1224-1227 (1983). Microtiter plates were coated with 20 μg/ml HSA for 2 hr. at room temperature, washed once with PBS and derivatized with 10 μg/ml SPDP for 1 hr. After washing, 100 μl of a 100 μg/ml cysteine containing peptide solution which had been recently dissolved was added to the wells and allowed to crosslink to the plates overnight at 4° C. Unbound peptide was removed from plates by washing with PBS. To block non-reacted sites, the plates are coated with 100 μl of a 2.5 mg/ml BSA solution in PBS for 1 hr. at 37° C. 100 μl of Jurkat cells (2.5×10^6 cells/ml) in DMEM plus BSA (2.5 mg/ml) was mixed with an appropriate concentration of the compound to be tested and the mixture was added to peptide coated dishes and incubated for 1 hr. at 37° C. Generally 100, 20, 5 and 1.25 μM concentrations of the compound were tested.
Following this incubation the plates were washed once with PBS and the attached cells were fixed with 3% paraformaldehyde in PBS and stained with 0.5% toluidine blue in 3.7% formaldehyde. The cells were stained overnight at room temperature and the optical density at 590 nm of toluidine blue stained cells was determined using a vertical pathway spectrophotometer to quantitate attachment (VMAX Kinetic Microplate Reader, Molecular Devices, Menlo Park, Calif.). This procedure is a modification of a previously published method (Cardarelli et al, J. Biol. Chem., 269:18668-18673 (1994) and Cardarelli et al, Proc. Natl. Acad. Sci. USA, 83:2647-2651 (1986)).

T1 sequence (P13612 34-1032): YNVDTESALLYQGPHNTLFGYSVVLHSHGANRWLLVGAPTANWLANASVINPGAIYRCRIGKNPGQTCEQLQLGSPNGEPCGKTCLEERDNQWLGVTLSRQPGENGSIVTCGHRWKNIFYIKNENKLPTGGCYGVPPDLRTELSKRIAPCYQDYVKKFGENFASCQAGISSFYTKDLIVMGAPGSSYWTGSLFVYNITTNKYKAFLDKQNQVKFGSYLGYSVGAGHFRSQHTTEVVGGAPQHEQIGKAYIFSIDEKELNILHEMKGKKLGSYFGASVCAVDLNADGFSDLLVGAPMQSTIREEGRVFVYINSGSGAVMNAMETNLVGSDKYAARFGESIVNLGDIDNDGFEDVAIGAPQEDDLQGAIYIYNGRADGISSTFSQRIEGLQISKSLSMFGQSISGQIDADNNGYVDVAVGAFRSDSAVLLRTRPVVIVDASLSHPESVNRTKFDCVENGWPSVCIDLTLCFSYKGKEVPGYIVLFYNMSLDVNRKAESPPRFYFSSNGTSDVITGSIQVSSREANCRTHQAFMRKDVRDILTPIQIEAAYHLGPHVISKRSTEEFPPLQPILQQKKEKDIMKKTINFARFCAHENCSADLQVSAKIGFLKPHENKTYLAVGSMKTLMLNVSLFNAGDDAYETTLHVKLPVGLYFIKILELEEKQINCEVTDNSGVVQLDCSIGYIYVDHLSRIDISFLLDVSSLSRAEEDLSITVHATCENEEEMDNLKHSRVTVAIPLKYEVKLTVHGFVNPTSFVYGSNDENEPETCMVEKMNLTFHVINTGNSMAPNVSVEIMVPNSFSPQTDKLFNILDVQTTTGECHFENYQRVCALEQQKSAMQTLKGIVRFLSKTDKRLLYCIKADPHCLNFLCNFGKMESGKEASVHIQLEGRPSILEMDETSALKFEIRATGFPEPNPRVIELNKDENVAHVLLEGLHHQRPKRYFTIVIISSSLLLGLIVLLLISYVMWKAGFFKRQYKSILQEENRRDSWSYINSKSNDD
T1 sequence (P05556 21-798): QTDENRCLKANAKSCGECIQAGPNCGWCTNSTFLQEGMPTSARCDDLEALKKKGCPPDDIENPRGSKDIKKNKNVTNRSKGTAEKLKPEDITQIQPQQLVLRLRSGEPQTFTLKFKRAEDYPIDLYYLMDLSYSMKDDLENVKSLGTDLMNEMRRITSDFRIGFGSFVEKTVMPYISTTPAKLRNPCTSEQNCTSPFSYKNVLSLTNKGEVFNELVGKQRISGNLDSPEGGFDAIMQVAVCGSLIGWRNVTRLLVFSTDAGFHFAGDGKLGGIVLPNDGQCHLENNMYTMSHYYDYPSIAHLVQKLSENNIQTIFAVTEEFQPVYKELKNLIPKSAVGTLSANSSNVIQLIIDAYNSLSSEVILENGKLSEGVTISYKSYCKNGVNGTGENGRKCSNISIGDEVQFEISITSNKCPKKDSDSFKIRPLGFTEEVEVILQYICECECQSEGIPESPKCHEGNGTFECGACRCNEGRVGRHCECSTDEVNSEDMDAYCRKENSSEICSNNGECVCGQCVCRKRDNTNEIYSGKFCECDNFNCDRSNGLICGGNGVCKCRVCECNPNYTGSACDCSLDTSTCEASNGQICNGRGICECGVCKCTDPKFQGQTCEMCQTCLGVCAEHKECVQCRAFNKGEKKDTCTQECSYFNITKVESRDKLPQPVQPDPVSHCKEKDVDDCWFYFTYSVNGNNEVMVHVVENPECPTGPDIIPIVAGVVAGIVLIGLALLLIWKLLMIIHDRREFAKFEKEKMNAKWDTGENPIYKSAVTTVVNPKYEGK

Compound	IC50
CCOC(=O)N1CSC[C@@H]1C(=O)N[C@@H](Cc1ccc(NC(=O)c2ccccc2)cc1)C(=O)O [Example 268, (4S)-4-[[[(1S)-1-Carboxy-2-[4-[(benzoyl)amino]phenyl]ethyl]amino]carbonyl]-3-thiazolidinecarboxylic Acid 3-Ethyl Ester]	≥ 750 nM
CCOC(=O)N1CSC[C@@H]1C(=O)N[C@@H](Cc1ccc(NC(C)=O)cc1)C(=O)O [Example 269, (4S)-4-[[[(1S)-1-Carboxy-2-[4-[(acetyl)amino]phenyl]ethyl]amino]carbonyl]-3-thiazolidinecarboxylic Acid 3-Ethyl Ester]	≥ 750 nM
CCOC(=O)N1CSC[C@@H]1C(=O)N[C@@H](Cc1ccc(NC(=O)CCc2ccccc2)cc1)C(=O)O [Example 270, (4S)-4-[[[(1S)-1-Carboxy-2-[4-[(3-phenylpropanoyl)amino]phenyl]ethyl]amino]carbonyl]-3-thiazolidinecarboxylic Acid 3-Ethyl ester]	50 to 750 nM
CCOC(=O)N1CSC[C@@H]1C(=O)N[C@@H](Cc1ccc(NC(=O)c2cccnc2)cc1)C(=O)O [Example 271, (4S)-4-[[[(1S)-1-Carboxy-2-[4-[(3-pyridinylcarbonyl)amino]phenyl]ethyl]amino]carbonyl]-3-thiazolidinecarboxylic Acid 3-Ethyl Ester]	50 to 750 nM
CCOC(=O)N1CSC[C@@H]1C(=O)N[C@@H](Cc1ccc(NC(=O)c2ccc(OC)cc2)cc1)C(=O)O [Example 272, (4S)-4-[[[(1S)-1-Carboxy-2-[4-[(4-methoxybenzoyl)amino]phenyl]ethyl]amino]carbonyl]-3-thiazolidinecarboxylic Acid 3-Ethyl Ester]	50 to 750 nM
CCOC(=O)N1CSC[C@@H]1C(=O)N[C@@H](Cc1ccc(NC(=O)c2ccc(C)cc2)cc1)C(=O)O [Example 273, (4S)-4-[[[(1S)-1-Carboxy-2-[4-[(4-methylbenzoyl)amino]phenyl]ethyl]amino]carbonyl]-3-thiazolidinecarboxylic Acid 3-Ethyl Ester]	≥ 750 nM
CCOC(=O)N1CSC[C@@H]1C(=O)N[C@@H](Cc1ccc(NC(=O)c2ccccc2C(F)(F)F)cc1)C(=O)O [Example 274, (4S)-4-[[[(1S)-1-Carboxy-2-[4-[[2-(trifluoromethyl)benzoyl]amino]phenyl]ethyl]amino]carbonyl]-3-thiazolidinecarboxylic Acid 3-Ethyl Ester]	50 to 750 nM
CCOC(=O)N1CSC[C@@H]1C(=O)N[C@@H](Cc1ccc(NC(=O)c2c(Cl)cc(Cl)cc2Cl)cc1)C(=O)O [Example 275, (4S)-4-[[[(1S)-1-Carboxy-2-[4-[(2,4,6-trichlorobenzoyl)amino]phenyl]ethyl]amino]-carbonyl]-3-thiazolidinecarboxylic Acid 3-Ethyl Ester]	≤ 50 nM
CCOC(=O)N1CSC[C@@H]1C(=O)N[C@@H](Cc1ccc(NS(=O)(=O)c2cc(Cl)ccc2Cl)cc1)C(=O)O [Example 276, (4S)-4-[[[(1S)-1-Carboxy-2-[4-[[(2,5-dichlorophenyl)sulfonyl]amino]phenyl]ethyl]amino]carbonyl]-3-thiazolidinecarboxylic Acid 3-Ethyl Ester]	≥ 750 nM
CCOC(=O)N1CSC[C@@H]1C(=O)N[C@@H](Cc1ccc(NC(=O)Nc2c(Cl)cccc2Cl)cc1)C(=O)O [Example 277, (4S)-4-[[[(1S)-1-Carboxy-2-[4-[[[(2,6-dichlorophenyl)amino]carbonyl]amino]phenyl]ethyl]amino]carbonyl]-3-thiazolidinecarboxylic Acid 3-Ethyl Ester]	≥ 750 nM
CCOC(=O)N1CSC[C@@H]1C(=O)N[C@@H](Cc1ccc(C(=O)Nc2c(Cl)cc(Cl)cc2Cl)cc1)C(=O)O [Example 278, (4S)-4-[[[(1S)-1-Carboxy-2-[4-[[(2,4,6-trichlorophenyl)amino]carbonyl]phenyl]ethyl]amino]carbonyl]-3-thiazolidinecarboxylic Acid 3-Ethyl Ester]	50 to 750 nM
O=C(Nc1ccc(C[C@H](NC(=O)C2CS[C@H]3CNC(=O)N23)C(=O)O)cc1)c1c(Cl)cccc1Cl (stereo partly drawn) [Example 279, 4-[(2,6-Dichlorobenzoyl)amino]-N-[[(7aS)-hexahydro-5-oxoimidazo[5,1-b]thiazol-3-yl]carbonyl]-L-phenylalanine]	50 to 750 nM
O=C(Nc1ccc(C[C@H](NC(=O)C2CS[C@@H]3CNC(=O)N23)C(=O)O)cc1)c1c(Cl)cccc1Cl (stereo partly drawn) [Example 280, 4-[(2,6-Dichlorobenzoyl)amino]-N-[[(7aR)-hexahydro-5-oxoimidazo[5,1-b]thiazol-3-yl]carbonyl]-L-phenylalanine]	50 to 750 nM

Further lines, results first:

IC50	Compound
50 to 750 nM	O=C(Nc1ccc(C[C@H](NC(=O)C2CSC3COC(=O)N32)C(=O)O)cc1)c1c(Cl)cccc1Cl (single isomer, unassigned) [Example 281, 4-[(2,6-Dichlorobenzoyl)amino]-N-[(tetrahydro-5-oxo-5H-thiazolo[3,2-c]oxazol-3-yl)carbonyl]-L-phenylalanine]
≤ 50 nM	O=C(Nc1ccc(C[C@H](NC(=O)C2CSC3COC(=O)N32)C(=O)O)cc1)c1c(Cl)cccc1Cl (single isomer, unassigned) [Example 282, 4-[(2,6-Dichlorobenzoyl)amino]-N-[(tetrahydro-5-oxo-5H-thiazolo[3,2-c]oxazol-3-yl)carbonyl]-L-phenylalanine]
≤ 50 nM	CCOC(=O)N1CSCC1C(=O)N[C@@H](Cc1ccc(NC(=O)c2c(Cl)cccc2Cl)nc1)C(=O)O (stereo in doubt) [Example 290, [S-(R*,R*)]-4-[[[1-Carboxy-2-[2-[(2,6-dichlorobenzoyl)amino]-5-pyridinyl]ethyl]amino]carbonyl]-3-thiazolidinecarboxylic Acid Ethyl Ester]
50 to 750 nM	CCOC(=O)N1C(c2ccncc2)SC[C@@H]1C(=O)N[C@@H](Cc1ccc(NC(=O)c2c(Cl)cccc2Cl)cc1)C(=O)O (stereo partly drawn) [Example 283, (4S)-4-[[[(1S)-1-Carboxy-2-[4-[(2,6-dichlorobenzoyl)amino]phenyl]ethyl]amino]carbonyl]-2-(4-pyridinyl)-3-thiazolidinecarboxylic Acid 3-Ethyl Ester]
50 to 750 nM	NC(=O)[C@H](Cc1ccc(OCc2c(Cl)cccc2Cl)cc1)NC(=O)[C@H]1CSCN1C(=O)OCCN1CCCC1 [Example 284]
50 to 750 nM	O=C(O)[C@H](Cc1ccc(OCc2c(Cl)cccc2Cl)cc1)NC(=O)[C@H]1CSCN1C(=O)OC1CCOC1 (stereo partly drawn) [Example 285, (4S)-4-[[[(1S)-1-Carboxy-2-[4-[(2,6-dichlorophenyl)methoxy]phenyl]ethyl]amino]carbonyl]-3-thiazolidinecarboxylic Acid 3-(3-Tetrahydrofuranyl)ester]
50 to 750 nM	NC(=O)[C@H](Cc1ccc(OCc2c(Cl)cccc2Cl)cc1)NC(=O)[C@H]1CSCN1C(=O)OCCN1CCCCC1 [Example 286, (4S)-4-[[[(1S)-2-Amino-1-[[4-[(2,6-dichlorophenyl)methoxy]phenyl]methyl]-2-oxoethyl]amino]carbonyl]-3-thiazolidinecarboxylic Acid 3-[2-(1-Piperidinyl)ethyl]ester]
50 to 750 nM	CN1CCN(CCOC(=O)N2CSC[C@@H]2C(=O)N[C@@H](Cc2ccc(OCc3c(Cl)cccc3Cl)cc2)C(N)=O)CC1 [Example 287, (4S)-4-[[[(1S)-2-Amino-1-[[4-[(2,6-dichlorophenyl)methoxy]phenyl]methyl]-2-oxoethyl]amino]carbonyl]-3-thiazolidinecarboxylic Acid 3-[2-(4-Methyl-1-piperazinyl)ethyl]ester]
≥ 750 nM	NC(=O)[C@H](Cc1ccc(NC(=O)c2c(Cl)cccc2Cl)cc1)NC(=O)[C@H]1CSCN1C(=O)OCCN1CCOCC1 [Example 288, (4S)-4-[[[(1S)-2-Amino-1-[[4-[(2,6-dichlorobenzoyl)amino]phenyl]methyl]-2-oxoethyl]amino]carbonyl]-3-thiazolidinecarboxylic Acid 3-[2-(4-Morpholinyl)ethyl]ester]
